Structures can show the parent of a compound that is named as a salt.
These compounds were tested against HPK full length, T165E S171E (Homo sapiens (Human), UniProt Q92918, S171E/T165E) (assay: HPK1-FL HTRF enzymatic assay ("HTRF")). Details: ATP 1 mM, read-out: HPK1 Ki.
Assay type: biochemical
Procedure, shortened: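 HTRF detection of phosphorylated biotin-SLP-76 used Eu-anti-pSLP76 antibody and SA-XL665, read after 60 min. The kinase reaction ran 60 min at […], following a 30-min compound preincubation with the full-length enzyme.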

Sequence of HPK full length, T165E S171E (Q92918 whole entry T165E/S171E, looked up): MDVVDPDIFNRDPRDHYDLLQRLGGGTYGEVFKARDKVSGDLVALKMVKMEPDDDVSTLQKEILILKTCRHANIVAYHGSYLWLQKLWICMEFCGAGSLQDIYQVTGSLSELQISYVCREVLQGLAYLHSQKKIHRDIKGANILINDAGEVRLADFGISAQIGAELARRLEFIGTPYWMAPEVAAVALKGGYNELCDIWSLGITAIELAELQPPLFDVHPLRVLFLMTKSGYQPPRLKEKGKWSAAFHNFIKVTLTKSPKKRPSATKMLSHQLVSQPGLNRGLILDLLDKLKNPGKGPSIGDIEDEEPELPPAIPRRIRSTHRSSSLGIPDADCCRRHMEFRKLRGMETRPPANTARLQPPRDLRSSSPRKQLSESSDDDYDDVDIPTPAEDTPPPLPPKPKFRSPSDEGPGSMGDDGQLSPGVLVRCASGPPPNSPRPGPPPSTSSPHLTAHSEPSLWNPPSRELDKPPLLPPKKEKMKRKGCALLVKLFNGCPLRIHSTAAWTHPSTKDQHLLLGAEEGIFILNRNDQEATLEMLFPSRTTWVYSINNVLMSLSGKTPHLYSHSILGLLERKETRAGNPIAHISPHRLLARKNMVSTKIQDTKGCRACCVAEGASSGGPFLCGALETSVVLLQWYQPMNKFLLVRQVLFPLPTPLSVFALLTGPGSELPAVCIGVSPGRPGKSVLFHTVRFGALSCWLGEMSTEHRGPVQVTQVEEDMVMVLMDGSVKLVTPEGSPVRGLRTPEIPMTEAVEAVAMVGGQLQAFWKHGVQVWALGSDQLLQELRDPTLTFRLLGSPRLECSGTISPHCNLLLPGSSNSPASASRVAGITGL

Compound | Ki [nM]
Cc1c(-c2cc3cc(NC(=O)OC4CCC4)ncc3c(N)c2F)cnc2c1NCCO2 [Compound 487, Cyclobutyl (8-amino-7-fluoro-6-(8-methyl-2,3-dihydro-1H-pyrido[2,3-b][1,4]oxazin-7-yl)isoquinolin-3-yl)carbamate] | < 0.013
CCC(=O)N1CC(OC(=O)Nc2cc3cc(-c4cnc5c(c4C)NCCC5)c(F)c(N)c3cn2)C1 [Compound 492, 1-Propionylazetidin-3-yl (8-amino-7-fluoro-6-(4-methyl-5,6,7,8-tetrahydro-1,5-naphthyridin-3-yl)isoquinolin-3-yl)carbamate] | 0.055
Cc1c(-c2cc3cc(NC(=O)OC4CN(S(C)(=O)=O)C4)ncc3c(N)c2F)cnc2c1NCCC2 [Compound 493, 1-(Methylsulfonyl)azetidin-3-yl (8-amino-7-fluoro-6-(4-methyl-5,6,7,8-tetrahydro-1,5-naphthyridin-3-yl)isoquinolin-3-yl)carbamate] | 0.064
Cc1c(-c2cc3cc(NC(=O)OC4CC5(C4)CN(CC(F)F)C5)ncc3c(N)c2F)cnc2c1NCCO2 [Compound 494, 2-(2,2-Difluoroethyl)-2-azaspiro[3.3]heptan-6-yl (8-amino-7-fluoro-6-(8-methyl-2,3-dihydro-1H-pyrido[2,3-b][1,4]oxazin-7-yl)isoquinolin-3-yl)carbamate] | < 0.013
Cc1c(-c2cc3cc(NC(=O)O[C@H]4[C@@H]5CN(C(C)C)C[C@@H]54)ncc3c(N)c2F)cnc2c1NCCO2 [Compound 499a, (1R,5S,6s)-3-Isopropyl-3-azabicyclo[3.1.0]hexan-6-yl (8-amino-7-fluoro-6-(8-methyl-2,3-dihydro-1H-pyrido[2,3-b][1,4]oxazin-7-yl)isoquinolin-3-yl)carbamate] | < 0.013
Cc1c(-c2cc3cc(NC(=O)O[C@H]4[C@@H]5CN(C6COC6)C[C@@H]54)ncc3c(N)c2F)cnc2c1NCCO2 [Compound 502a, (1R,5S,6s)-3-(Oxetan-3-yl)-3-azabicyclo[3.1.0]hexan-6-yl (8-amino-7-fluoro-6-(8-methyl-2,3-dihydro-1H-pyrido[2,3-b][1,4]oxazin-7-yl)isoquinolin-3-yl)carbamate] | < 0.013
CC[C@]1(O)C[C@H](OC(=O)Nc2cc3cc(-c4cnc5c(c4C)NCCO5)c(F)c(N)c3cn2)C1 [Compound 512a, (1s,3r)-3-Ethyl-3-hydroxycyclobutyl (8-amino-7-fluoro-6-(8-methyl-2,3-dihydro-1H-pyrido[2,3-b][1,4]oxazin-7-yl)isoquinolin-3-yl)carbamate] | 0.015
Cc1c(-c2cc3cc(NC(=O)O[C@H]4C[C@@H](N5CC(F)(F)C5)C4)ncc3c(N)c2F)cnc2c1NCCO2 [Compound 513a, (1s, 3s)-3-(3,3-Difluoroazetidin-1-yl)cyclobutyl (8-amino-7-fluoro-6-(8-methyl-2,3-dihydro-1H-pyrido[2,3-b][1,4]oxazin-7-yl)isoquinolin-3-yl)carbamate] | 0.022
Cc1c(-c2cc3cc(NC(=O)O[C@H]4C[C@H](n5ccnc5)C4)ncc3c(N)c2F)cnc2c1NCCO2 [Compound 514a, (1r,3r)-3-(1H-Imidazol-1-yl)cyclobutyl (8-amino-7-fluoro-6-(8-methyl-2,3-dihydro-1H-pyrido[2,3-b][1,4]oxazin-7-yl)isoquinolin-3-yl)carbamate hydrochloride] | < 0.013
Cc1c(-c2cc3cc(NC(=O)O[C@H]4C[C@@H](C(=O)N5CCC5)C4)ncc3c(N)c2F)cnc2c1NCCO2 [Compound 517a, (1s,3s)-3-(Azetidine-1-carbonyl)cyclobutyl (8-amino-7-fluoro-6-(8-methyl-2,3-dihydro-1H-pyrido[2,3-b][1,4]oxazin-7-yl)isoquinolin-3-yl)carbamate] | < 0.013
Cc1c(-c2cc3cc(NC(=O)O[C@H]4C[C@@H](C(=O)N(C)C)C4)ncc3c(N)c2F)cnc2c1NCCO2 [Compound 519a, (1s,3s)-3-(Dimethylcarbamoyl)cyclobutyl (8-amino-7-fluoro-6-(8-methyl-2,3-dihydro-1H-pyrido[2,3-b][1,4]oxazin-7-yl)isoquinolin-3-yl)carbamate] | < 0.013
CNC(=O)[C@H]1C[C@@H](OC(=O)Nc2cc3cc(-c4cnc5c(c4C)NCCO5)c(F)c(N)c3cn2)C1 [Compound 520a, (1s,3s)-3-(Methylcarbamoyl)cyclobutyl (8-amino-7-fluoro-6-(8-methyl-2,3-dihydro-1H-pyrido[2,3-b][1,4]oxazin-7-yl)isoquinolin-3-yl)carbamate hydrochloride] | < 0.013
Cc1c(-c2cc3cc(NC(=O)OC4CN(CCF)C4)ncc3c(N)c2F)cnc2c1NCCO2 [Compound 521, 1-(2-Fluoroethyl)azetidin-3-yl (8-amino-7-fluoro-6-(8-methyl-2,3-dihydro-1H-pyrido[2,3-b][1,4]oxazin-7-yl)isoquinolin-3-yl)carbamate] | 0.11
Cc1c(-c2cc3cc(NC(=O)O[C@H]4[C@@H]5CN(S(C)(=O)=O)C[C@@H]54)ncc3c(N)c2F)cnc2c1NCCO2 [Compound 522a, (1R,5S,6s)-3-(Methylsulfonyl)-3-azabicyclo[3.1.0]hexan-6-yl (8-amino-7-fluoro-6-(8-methyl-2,3-dihydro-1H-pyrido[2,3-b][1,4]oxazin-7-yl)isoquinolin-3-yl)carbamate] | < 0.013
Cc1c(-c2cc3cc(NC(=O)OC4CN(S(=O)(=O)C5CC5)C4)ncc3c(N)c2F)cnc2c1NCCO2 [Compound 524, (1-Cyclopropylsulfonylazetidin-3-yl)-N-[8-amino-7-fluoro-6-(8-methyl-2,3-dihydro-1H-pyrido[2,3-b][1,4]oxazin-7-yl)-3-isoquinolyl]-carbamate hydrochloride] | 0.02
Cc1c(-c2cc3cc(NC(=O)O[C@H]4C[C@@H](N5CC(F)C5)C4)ncc3c(N)c2F)cnc2c1NCCO2 [Compound 525a, (1s,3s)-3-(3-Fluoroazetidin-1-yl)cyclobutyl (8-amino-7-fluoro-6-(8-methyl-2,3-dihydro-1H-pyrido[2,3-b][1,4]oxazin-7-yl)isoquinolin-3-yl)carbamate] | < 0.013
Cc1c(-c2cc3cc(NC(=O)O[C@@H]4C[C@](C)(O)[C@@H]4C)ncc3c(N)c2F)cnc2c1NCCO2 [Compound 526a, (1R,2R,3S)-3-Hydroxy-2,3-dimethylcyclobutyl (8-amino-7-fluoro-6-(8-methyl-2,3-dihydro-1H-pyrido[2,3-b][1,4]oxazin-7-yl)isoquinolin-3-yl)carbamate] | 0.015
Cc1c(-c2cc3cc(NC(=O)O[C@@H]4C[C@@](C)(O)[C@H]4C)ncc3c(N)c2F)cnc2c1NCCO2 [Compound 526d, (1R,2S,3R)-3-Hydroxy-2,3-dimethylcyclobutyl (8-amino-7-fluoro-6-(8-methyl-2,3-dihydro-1H-pyrido[2,3-b][1,4]oxazin-7-yl)isoquinolin-3-yl)carbamate] | 0.018
CNc1cncc(-c2cc3cc(NC(=O)O[C@H]4C[C@](C)(O)C4)ncc3c(N)c2F)c1C [Compound 527a, (1r,3r)-3-Hydroxy-3-methylcyclobutyl (8-amino-7-fluoro-6-(4-methyl-5-(methylamino)pyridin-3-yl)isoquinolin-3-yl)carbamate] | 0.538
CNc1cncc(-c2cc3cc(NC(=O)O[C@H]4C[C@@](C)(O)C4)ncc3c(N)c2F)c1C [Compound 527b, (1s,3s)-3-Hydroxy-3-methylcyclobutyl (8-amino-7-fluoro-6-(4-methyl-5-(methylamino)pyridin-3-yl)isoquinolin-3-yl)carbamate] | 0.216

Source: patent US11612606B2, “8-aminoisoquinoline compounds and uses thereof” (priority 2018, dated 2023)
